Literature values, collected in patent publication US12414943B2 (ACASTI PHARMA U.S., INC., priority 2022, dated 2025).

What was measured:
[1] = nimodipine-treated SAH patients
[2] = man, oral

COCCOC(=O)C1=C(C)NC(C)=C(C(=O)OC(C)C)C1c1cccc([N+](=O)[O-])c1 (centres unmarked) [Nimodipine, isopropyl2-methoxyethyl 1,4-dihydro-2,6-dimethyl-4-(m-nitrophenyl)-3,5-pyridinedicarboxylate]
concentration in the cerebrospinal fluid [1]: ≤ 12.5 ng/mL | half-life equivalent to earlier elimination rates [2]: 1 to 2 h
